Measured values taken from patent publication US12226410B2, “Methods for enhancing cellular clearance of pathological molecules via activation of the cellular protein ykt6” (NORTHWESTERN UNIVERSITY, priority 2019, dated 2025).

How the values were obtained:
lysosomal GCase = test: Live cell GCase activity assay in A53T iPSn; format: cell-based, human
Procedure: FIGS. 6A, 6B, 6C, 6D, 6E, 6F, and 6G. FTIs enhance lysosomal GCase activity and reduce pathological a-syn by blocking ykt6 farnesylation. 6A) GCase activity in FTI-treated A53T iPSn at d80 (LNK-754 5 nM, 5d). 6B) GCase activity in FTI-treated A53T iPSn expressing empty vector (vect) or ykt6-CS (n=4). 6C) Lysosomal GCase activity was assessed in FTI-treated SHSY5Y cells transfected with scrambled or ykt6 shRNA (KD) (n=3). 6D) Quantification of Triton X-100 soluble (T-sol) a-syn by western blot from FTI-treated A53T iPSn (5 nM, 7d). *, non-specific band. (n=3). 6E) Quantification of insoluble a-syn from A53T iPSn as in D (n=3). 6F) Insoluble a-syn in FTI-treated H4 cells (5 nM, 5 days) transfected with either scrambled or ykt6 shRNA (n=6). 6G) Neuron viability was assessed in FTI-treated A53T iPSn (5 nM, 14d from d86-d100) by quantification of neurofilament protein. Right, neuron viability in FTI-treated A53T iPSn expressing empty vector or ykt6-CS (n=4). Values are the mean+/−SEM, *p<0.05, **p<0.01, ***p<0.001.
Live cell GCase activity assay. […] Fluorescent signal was quantified over time and normalized to total cell volume using CellTag 700 (Licor) or lysosomal mass by using cascade dextran blue (#D-1976, Thermofisher). […]
Treatment of cultures with farnesyltransferase inhibitors. […] Cultures were harvested and analyzed as described in the above sections.

[1] = Pharmacokinetic studies of the FTI; format: in vivo, mice; settings: single oral dose; data not shown
From the text: Farnesyltransferase inhibition activates ykt6 in vivo and reduces pathological aggregation in mice. We next sought to determine if FTIs could activate ykt6 in the brains of mice by first testing their effect in wild-type animals.

GCase = test: FTI treatment of DASYN53 mice: GCase maturation and activity in midbrain; format: in vivo; settings: i.p. 0.9 mg/kg, 26d
Procedure: FIGS. 7A, 7B, 7C, 7D, and 7E. FTI treatment restores functional membrane-associated ykt6 complexes in DASYN53 mice. 7A) Immunohistochemistry in the midbrain of mice showing ykt6, tyrosine hydroxylase (TH), NeuN, and nuclei (DAPI). Scale bar, 50 μm. 7B) Ykt6 membrane shift analysis in olfactory bulbs of FTI (LNK-754)-injected DASYN53 mice (12-14 months, i.p. 26d, 0.9 mg/kg) (n=5, non-transgenic (nTg)+veh; n=4, DASYN53+veh; n=4 DASYN53+FTI). GAPDH and sec22b are loading controls. 7C) SEC/western blot analysis of midbrains of FTI-treated DASYN53 mice. Inputs are shown on the left. NSE is a loading control. […] (n=3, nTg+veh; n=4, DASYN53+veh; n=4 DASYN53+FTI). 7D) Quantification of complexes from SEC in 7C. 7E) GCase maturation was assessed in midbrain lysates by endo H resistance (n=4, nTg+veh; n=4, DASYN53+veh; n=4 DASYN53+FTI). For all quantifications, each point represents a measurement from an individual animal. […]
FIGS. 8A, 8B, 8C, 8D, 8E, and 8F. […] 8B & 8C) Quantification of soluble and insoluble a-syn from midbrains of FTI-treated DASYN53 mice normalized to total protein (CBB). […] 8D) Midbrain TH levels were quantified by western blot of FTI-treated DASYN53 mice (n=3). […]
Analysis of post-ER GCase. […] Endo H resistant bands migrating at 62-64 kDa were measured as post-ER forms of GCase, and normalized to GAPDH levels. […]

SMILES: C#Cc1cccc(-c2cc(=O)n(C)c3ccc([C@](O)(c4ccc(Cl)cc4)c4cncn4C)cc23)c1 [LNK-754]
- lysosomal GCase activity (lysosomal GCase; 1 nM): partially rescued
- lysosomal GCase activity (lysosomal GCase; 4 and 10 nM): near-complete rescue
- blood-brain-barrier crossing [1]: could rapidly cross the blood-brain-barrier
- time to clearance from plasma [1]: ≤ 20 h
- enhancement of GCase activity in midbrain (GCase): ca. 40%
- GCase trafficking (mature, endo H resistant forms) (GCase; midbrain lysates): enhanced GCase trafficking
